Measured values published in BindingDB's records for doi:10.1111/cbdd.12843 (Key Laboratory for Neurodegenerative Diseases of Ministry …, 2017).

molecular target: D(2) dopamine receptor (Homo sapiens, UniProt P14416); test: Dopamine D2 Receptor Activity Assay; details: 37 °C
Experimental: D2 receptor/G protein α16a co-transfected HEK293 cells (from the Shanghai Institute of Materia Medica, Chinese Academy of Sciences) were seeded in 96-wellplates and incubated overnight at 37 °C. The media were then removed, and 40 μL of 10 μM Fluo-4/AM (a calcium fluorescent probe) (Invitrogen Corporation, Carlsbad, CA, USA) was added. The plates were then incubated for 40 min at 37 °C. After the supernatant was discarded and the cells were washed with calcium buffer, 50 μL of calcium buffer containing tested compounds at the dosage range from 0.01 nM to 10 μM was added, and the plates were incubated for 10 min. The fluorescence values at an emission wavelength of 525 nm and an excitation wavelength of 485 nm were detected by the FlexStation II microplate reader (Molecular Devices, San Francisco, CA, USA), starting 15 s after 25 μL of calcium buffer containing 50 nM dopamine (an agonist of the dopamine D2 receptor) (Sigma-Aldrich, Saint Louis, MO,USA) was automatically added by the instrument.

Chain of D(2) dopamine receptor (P14416 whole entry): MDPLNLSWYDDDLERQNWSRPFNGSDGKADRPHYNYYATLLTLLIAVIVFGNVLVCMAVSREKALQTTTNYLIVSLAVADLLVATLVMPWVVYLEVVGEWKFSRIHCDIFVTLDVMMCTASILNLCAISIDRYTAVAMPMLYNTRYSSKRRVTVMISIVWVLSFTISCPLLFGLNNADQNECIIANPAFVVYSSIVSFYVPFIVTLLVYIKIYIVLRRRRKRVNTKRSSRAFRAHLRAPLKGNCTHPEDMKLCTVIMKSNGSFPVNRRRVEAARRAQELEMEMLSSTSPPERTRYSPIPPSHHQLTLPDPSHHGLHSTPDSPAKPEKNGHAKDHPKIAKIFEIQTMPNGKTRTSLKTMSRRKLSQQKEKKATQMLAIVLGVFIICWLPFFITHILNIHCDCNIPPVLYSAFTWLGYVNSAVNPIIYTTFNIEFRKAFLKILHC

SMILES	IC50
COc1ccc([C@@H]2CC(=O)c3c(O)cc(OCCCN4CCC(c5noc6cc(F)ccc56)CC4)cc3O2)cc1 [5-Hydroxy-2-(4-methoxyphenyl)-7-(4-(4-(6-fluorobenzo[d]isoxazol-3-yl)piperidin-1-yl)propoxy)chroman-4-one (7g)]	0.116 µM
COc1ccccc1N1CCN(CCCCOc2cc(O)c3c(c2)O[C@H](c2ccc(C)cc2)CC3=O)CC1 [5-Hydroxy-2-(4-methylphenyl)-7-(4-(4-(2-methoxyphenyl)piperazin-1-yl)butoxy)chroman-4-one (7b)]	0.346 µM
COc1ccc([C@@H]2CC(=O)c3c(O)cc(OCCCN4CCN(c5ccccc5OC)CC4)cc3O2)cc1 [5-Hydroxy-2-(4-methoxyphenyl)-7-(4-(4-(2-methoxyphenyl)piperazin-1-yl)propoxy)chroman-4-one (7f)]	0.22 µM
COc1ccccc1N1CCN(CCCCOc2cc(O)c3c(c2)O[C@H](c2ccc(F)cc2)CC3=O)CC1 [5-Hydroxy-2-(fluorophenyl)-7-(4-(4-(2-methoxyphenyl)piperazin-1-yl)butoxy)chroman-4-one (7c)]	0.0573 µM
COc1ccc([C@@H]2CC(=O)c3c(O)cc(OCCCCN4CCN(c5ccccc5OC)CC4)cc3O2)cc1 [5-Hydroxy-2-(4-methoxyphenyl)-7-(4-(4-(2-methoxyphenyl)piperazin-1-yl)butoxy)chroman-4-one (7a)]	0.205 µM
COc1ccc([C@@H]2CC(=O)c3c(O)cc(OCCCCN4CCC(c5noc6cc(F)ccc56)CC4)cc3O2)cc1 [5-Hydroxy-2-(4-methoxyphenyl)-7-(4-(4-(6-fluorobenzo[d]isoxazol-3-yl)piperidin-1-yl)butoxy)chroman-4-one (7d)]	0.0513 µM
O=C1C[C@@H](c2ccc(F)cc2)Oc2cc(OCCCCN3CCC(c4noc5cc(F)ccc45)CC3)cc(O)c21 [5-Hydroxy-2-(4-fluorophenyl)-7-(4-(4-(6-fluorobenzo[d]isoxazol-3-yl)piperidin-1-yl)butoxy)chroman-4-one (7e)]	0.0877 µM
